Source: patent US9920030B2 (priority 2006, dated 2018)
Like-named read-outs stand apart in the source and are kept apart here.

How the values were obtained:
Assay type in all cases: in vivo
[1] = system: Phytophthora infestans (the causal agent of tomato late blight); assay: whole plant or invertebrate
[2] = system: Plasmopara vilicola (the causal agent of grape downy mildew); assay: Test A: grape downy mildew, test suspension sprayed on grape seedlings after inoculation, visual disease rating
In short: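 Compounds dissolved in acetone (3% of final volume), suspended in 50/50 acetone/water with 250 ppm Trem 014; 200 ppm to run-off equals 500 g/ha. Seedlings inoculated, held saturated at 20 °C 24 h, then sprayed; 5 days at 20 °C, 24 h saturated, then visual rating, 0–100% control versus untreated.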

[3] = system: Phytophthora infestans (the causal agent of tomato late blight); assay: whole plant or invertebrate; remark: listed apart in the source
[4] = compounds without asterisk (application rate not given), 100 = 100% disease control, 0 = no control relative to the controls
[5] = Phytophthora infestans, 96 h, read-out: Percent Disease Control, Test C
[6] = Plasmopara, 144 h, * tested at 40 ppm, read-out: Percent Disease Control, Test A
[7] = Phytophthora infestans, 144 h, read-out: Percent Disease Control, Test B

Compound | Percent Disease Control, Test C [1, 4] [%] | Percent Disease Control, Test A [2, 4] [%] | Percent Disease Control, Test B [3, 4] [%] | Percent Disease Control, Test C ([1]; * tested at 40 ppm) [%] | Percent Disease Control, Test A ([2]; * tested at 40 ppm) [%] | Percent Disease Control, Test B ([3]; * tested at 40 ppm) [%] | other results
COC(=O)CC1CC(c2csc(C3CCN(C(=O)Cn4nc(C(F)(F)F)cc4C)CC3)n2)=NO1 (stereo not shown) [Compound 116] | 79 | 46 | 100 | – | – | – | –
Cc1cc(C(F)(F)F)nn1CC(=O)N1CCC(c2nc(C3=NOC(S(=O)(=O)c4ccccc4)C3)cs2)CC1 (stereo not shown) [Compound 117] | – | – | – | 99 | 93 | 100 | –
Cc1cc(C(F)(F)F)nn1CC(=O)N1CCC(c2nc(C3=NC[C@@H](c4ccccc4)N3C)cs2)CC1 [Compound 118] | – | – | – | 16 | 0 | 87 | –
Cc1cc(C(F)(F)F)nn1CC(=O)N1CCC(c2nc(C3=N[C@@H](c4ccccc4)[C@@H](c4ccccc4)N3)cs2)CC1 [Compound 119] | 0 | 0 | 82 | – | – | – | –
Cc1cc(C(F)(F)F)nn1CC(=O)N1CCC(c2nc(-c3ccc(Cl)cc3)cs2)CC1 [Compound 120] | 0 | 99 | 88 | – | – | – | –
Cc1cc(C(F)(F)F)nn1CC(=O)N1CCC(c2nc(-c3ccccc3Cl)cs2)CC1 [Compound 121] | 0 | 83 | 47 | – | – | – | –
Cc1cc(C(F)(F)F)nn1CC(=O)N1CCC(c2nc(-c3ccc(C(F)(F)F)cc3)cs2)CC1 [Compound 122] | 0 | 99 | 46 | – | – | – | –
Cc1cc(C(F)(F)F)nn1CC(=O)N1CCC(c2nc(-c3cccc(Cl)c3)cs2)CC1 [Compound 123] | 0 | 95 | 68 | – | – | – | –
Cc1cc(C(F)(F)F)nn1CC(=O)N1CCC(c2nc(-c3cccnc3)cs2)CC1 [Compound 124] | 26 | 8 | 98 | – | – | – | –
Cc1cc(C(F)(F)F)nn1CC(=O)N1CCC(c2nc(C3=NOC(c4ccc(O)c(O)c4)C3)cs2)CC1 (stereo not shown) [Compound 125] | 0 | 31 | 53 | – | – | – | –
O=C(Cn1nc(C(F)(F)F)cc1Br)N1CCC(c2nc(C3=NOC(c4ccccc4)C3)cs2)CC1 (stereo not shown) [Compound 126, 2-[5-bromo-3-(trifluoromethyl)-1H-pyrazol-1-yl]-1-[4-[4-(4,5-dihydro-5-phenyl-3-isoxazoly)-2-thiazolyl]-1-piperidinyl]ethanone] | 99 | 100 | 100 | – | – | – | Percent Disease Control, Test A ([2]; compounds without asterisk (application rate not given), 100 = 100% disease control, 0 = no control relative to the controls, listed as 11): 99%
Cc1cc(C(F)(F)F)n(CC(=O)N2CCC(c3nc(C4=NOC(c5ccccc5)C4)cs3)CC2)n1 (stereo not shown) [Compound 128, 1-[4-[4-(4,5-dihydro-5-phenyl-3-isoxazolyl)-2-thiazolyl]-1-piperidinyl]-2-[3-methyl-5-(trifluoromethyl)-1H-pyrazol-1-yl]ethanone] | – | – | – | – | – | – | pest or weed control at 40 ppm [1, 5]: 99%; pest or weed control at 40 ppm [2, 6]: 100%; pest or weed control at 40 ppm [3, 7]: 100%
Cc1cc(C(F)(F)F)nn1CC(=S)N1CCC(c2nc(C3=NOC(c4ccccc4)C3)cs2)CC1 (stereo not shown) [Compound 130, 1-[4-[4-(4,5-dihydro-5-phenyl-3-isoxazolyl)-2-thiazolyl]-1-piperidinyl]-2-[5-methyl-3-(trifluoromethyl)-1H-pyrazol-1-yl]ethanethione] | – | – | – | – | – | – | pest or weed control at 10 µg/mL [1, 5]: 99%; pest or weed control at 10 µg/mL ([2]; Plasmopara, 144 h, ** tested at l0 ppm, read-out: Percent Disease Control, Test A): 100%; pest or weed control at 10 µg/mL [3, 7]: 100%
COc1ccccc1C1CC(c2csc(C3CCN(C(=O)Cn4nc(C(F)(F)F)cc4C)CC3)n2)=NO1 (stereo not shown) [Compound 131] | – | – | – | 99 | 100 | 100 | –
Cc1cc(C(F)(F)F)nn1CC(=O)N1CCC(c2nc(C3=NOC(C)(c4cc(Cl)sc4Cl)C3)cs2)CC1 (stereo not shown) [Compound 132] | – | – | – | 91 | 85 | 100 | –
Cc1ccc(C)c(C2CC(c3csc(C4CCN(C(=O)Cn5nc(C(F)(F)F)cc5C)CC4)n3)=NO2)c1 (stereo not shown) [Compound 133] | – | – | – | 99 | 100 | 100 | –
COC(=O)c1ccc(C2CC(c3csc(C4CCN(C(=O)Cn5nc(C(F)(F)F)cc5C)CC4)n3)=NO2)cc1 (stereo not shown) [Compound 134] | – | – | – | 66 | 90 | 100 | –
Cc1ccc(C2CC(c3csc(C4CCN(C(=O)Cn5nc(C(F)(F)F)cc5C)CC4)n3)=NO2)c(C)c1 (stereo not shown) [Compound 136] | – | – | – | 99 | 99 | 100 | –

Compound | Percent Disease Control, Test C [1, 4] [%] | Percent Disease Control, Test A [2, 4] [%] | Percent Disease Control, Test B [3, 4] [%] | Percent Disease Control, Test C ([1]; * tested at 40 ppm) [%] | Percent Disease Control, Test A ([2]; * tested at 40 ppm) [%] | Percent Disease Control, Test B ([3]; * tested at 40 ppm) [%] | other results
Cc1cc(C(F)(F)F)nn1CC(=O)N1CCC(c2nc(C3=NOC4(CCOc5ccccc54)C3)cs2)CC1 (stereo not shown) [Compound 137, 1-[4-[4-(2,3-dihydrospiro[4H-1-benzopyran-4,5′(4′H)-isoxazol]-3′-yl)-2-thiazolyl]-1-piperidinyl]-2-[5-methyl-3-(trifluoromethyl)-1H-pyrazol-1-yl]ethanone] | – | – | – | – | – | – | pest or weed control at 40 ppm [1, 5]: 99%; pest or weed control at 40 ppm [2, 6]: 100%; pest or weed control at 40 ppm [3, 7]: 100%
Cc1cc(C(F)(F)F)nn1CC(=O)N1CCC(c2nc(C3=NOC4(CCC(C(C)(C)C)CC4)C3)cs2)CC1 (stereo not shown) [Compound 138] | – | – | – | 99 | 93 | 100 | –
Cc1cc(C(F)(F)F)nn1CC(=O)N1CCC(c2nc(C3=NOC(c4ccccc4)(c4ccccc4)C3)cs2)CC1 [Compound 139] | – | – | – | 87 | 87 | 98 | –
COc1ccccc1C1(C)CC(c2csc(C3CCN(C(=O)Cn4nc(C(F)(F)F)cc4C)CC3)n2)=NO1 (stereo not shown) [Compound 140] | – | – | – | 57 | 98 | 100 | –
COCC1(c2ccccc2)CC(c2csc(C3CCN(C(=O)Cn4nc(C(F)(F)F)cc4C)CC3)n2)=NO1 (stereo not shown) [Compound 141] | – | – | – | 99 | 99 | 100 | –
CSCC1(c2ccccc2)CC(c2csc(C3CCN(C(=O)Cn4nc(C(F)(F)F)cc4C)CC3)n2)=NO1 (stereo not shown) [Compound 142] | – | – | – | 98 | 97 | 100 | –
Cc1cc(C(F)(F)F)nn1CC(=O)N1CCC(c2nc(C3=NOC(CS(C)(=O)=O)(c4ccccc4)C3)cs2)CC1 (stereo not shown) [Compound 143] | – | – | – | 99 | 99 | 100 | –
Cc1cc(C(F)(F)F)nn1CC(=O)N1CCC(c2nc(C3=NOC(C[S+](C)[O-])(c4ccccc4)C3)cs2)CC1 (stereo not shown) [Compound 144] | – | – | – | 93 | 99 | 100 | –
Cc1cc(C(F)(F)F)nn1CC(=O)N1CCC(c2nc(C3=CC(C)(c4ccccc4)OC3=O)cs2)CC1 (stereo not shown) [Compound 145] | 0 | 17 | 58 | – | – | – | –
Cc1c(C2(C)CC(c3csc(C4CCN(C(=O)Cn5nc(C(F)(F)F)cc5C)CC4)n3)=NO2)sc2cccc(Cl)c12 (stereo not shown) [Compound 146] | 53 | 83 | 100 | – | – | – | –
Cc1cc(C(F)(F)F)nn1CC(=O)N1CCC(c2nc(C3=NOC(C)(c4csc5ccccc45)C3)cs2)CC1 (stereo not shown) [Compound 147] | – | – | – | 95 | 100 | 100 | –
Cc1cc(C(F)(F)F)nn1CC(=O)N1CCC(c2nc(C3=NOC(c4ccsc4)C3)cs2)CC1 (stereo not shown) [Compound 148] | – | – | – | – | – | – | Percent Disease Control, Test C ([1]; ** tested at l0 ppm): 99%; Percent Disease Control, Test A ([2]; ** tested at l0 ppm): 100%; Percent Disease Control, Test B ([3]; ** tested at l0 ppm): 100%
Cc1cc(C(F)(F)F)nn1CC(=O)N1CCN(c2nc(C3=NOC(c4ccccc4)C3)cs2)CC1 (stereo not shown) [Compound 154, 1-[4-[4-(4,5-dihydro-5-phenyl-3-isoxazolyl)-2-thiazolyl]-1-piperazinyl]-2-[5-methyl-3-(trifluoromethyl)-1H-pyrazol-1-yl]ethanone] | – | – | – | – | – | – | pest or weed control at 40 ppm [1, 5]: 99%; pest or weed control at 40 ppm [2, 6]: 90%; pest or weed control at 40 ppm [3, 7]: 100%
CC(=O)OCC1(c2ccccc2)CC(c2csc(C3CCN(C(=O)Cn4nc(C(F)(F)F)cc4C)CC3)n2)=NO1 (stereo not shown) [Compound 156] | – | – | – | 99 | 100 | 100 | –
Cc1cc(C(F)(F)F)nn1CC(=O)N1CCC(c2nc(C3=NOC(CO)(c4ccccc4)C3)cs2)CC1 (stereo not shown) [Compound 159] | 99 | 94 | 100 | – | – | – | –
Cc1cc(C(F)(F)F)nn1CC(=O)N1CCC(c2nc(Cn3ccc(-c4ccccc4)n3)cs2)CC1 [Compound 160] | 17 | 68 | 80 | – | – | – | –
Cc1ccccc1[C@H]1CC(c2csc(C3CCN(C(=O)Cn4nc(C(F)(F)F)cc4C)CC3)n2)=NO1 [Compound 161, 1-[4-[4-[(5R)-4,5-dihydro-5-(2-methylphenyl)-3-isoxazolyl]-2-thiazolyl]-1-piperidinyl]-2-[5-methyl-3-(trifluoromethyl)-1H-pyrazol-1-yl]ethanone] | – | – | – | – | – | – | pest or weed control at 40 ppm [1, 5]: 99%; pest or weed control at 40 ppm [2, 6]: 100%; pest or weed control at 40 ppm [3, 7]: 100%
